The nature of series [1]: Toxicity of proteasome inhibitors in mice, intra-tracheal and systemic (IV) delivery. The settings on record: 10, 100 and 1000 fold higher doses than used in polarized airway cells. In kind it is in vivo. On the procedure:
Long-term enhancement of rAAV transduction by proteasome inhibitor in vivo. To evaluate the potential utility of proteasome inhibitors for in vivo gene therapy, both the toxicity and efficacy of these agents for in vivo rAAV mediated gene transfer in the mouse lung was tested. To assess the toxicity of these proteasome inhibitors in mice, 10, 100, and 1000 fold higher effective doses of LLnL or Z-LLL were administered than used to induce gene transfer in polarized airway cells, using both intra-tracheal and systemic (IV) delivery. No toxicity was indicated by histologic evaluation of the lung and liver (data not shown) or was evidenced by the death of animals. To investigate whether these proteasome inhibitors could improve rAAV transduction in vivo, AV.LacZ (5×10^10 particles) was delivered either alone or in the presence of 400 μM Z-LLL by intranasal administration. Mouse lungs were harvested at 3, 10 and 150 days post-infection to evaluate short and long term effects. […] Targeted transgene expression was predominantly confined to the conducting airways, rather than in the parenchyma. Alveolar cells were rarely transduced. […] The range of transgene expression in distal and proximal airways was 0 to 4% and 5 to 18%, respectively.

Series [2] relates to primary human fibroblasts. In kind it is cell-based. The conditions noted are these: confluent fibroblasts, AV.GFP3ori MOI 1000, 96 hours post-infection; brefeldin A 10 μg/ml, vinblastine 22 μM, cytochalasin B 1 μM, NH4Cl 2 mM, chloroquine 20 μm, LLnL 400 μM, Z-LLL 4 μM. The method, then:
FIG. 6. Primary confluent fibroblasts were infected with AV.GFP3ori virus at an MOI=1000 particles/cell following treatment with brefeldin A (10 μg/ml), vinblastine (22 μM), cytochalasin B (1 μM), NH4Cl (2 mM), chloroquine (20 μm), LLnL (400 μM), and Z-LLL (4 μM), final concentration indicated in brackets. Cells were harvested at 96 hours post-infection and the transduction efficiency was compared to untreated rAAV infected cells by FACS analysis for GFP expression. To control for non-specific effects caused by toxicity of the compounds, the percentage of live cells was also assessed by the absence of propidium iodide incorporation.
80% confluent human primary fibroblasts were infected with AV.GFP3ori at an moi of 1000 DNA particles/cell. FIG. 16A depicts GFP transgene expression in the absence (left photographs) and presence of 40 μM LLnL (right photographs) at 96 hours post-infection. […] Top and bottom panels represent bright field and FITC-channel fluorescent photomicrographs, respectively. The mean (+/−SEM, N=3) percentage of cells transduced with rAAV, as measured by FACS sorting of GFP expressing cells, is presented in the bar graph of FIG. 16B. […] In this study, rAAV from infected cells was first immunoprecipitated with anti-VP1,2,3 (AAV-2 capsid) monoclonal antibody followed by Western blot detection of ubiquitin side chains using an anti-ubiquitin monoclonal antibody. […] Epithelia were infected with AV.GFP3ori (10,000 particles/cell) from the basolateral surface following treatment with ubiquitin ligase inhibitor dipeptides (0.2 mM H-Leu-Ala-OH and 0.2 mM H-His-Ala-OH).
Initial studies were performed in confluent primary human fibroblasts since dose titrations and toxicity could be quickly assessed. Selected compounds were used to treat fibroblast monolayers prior to rAAV infection. rAAV transduction was assessed at 96 hours post-infection by FACS analysis, and the percentage of dead cells was simultaneously assessed by incorporation of propidium iodide.
These tripeptides are structurally related to chloroquine but have different lipid solubility and specificity for cysteine proteases (Seglen, 1983). These molecules decrease endosomal degradation of molecules by a mechanism different than altering pH.
Transduction of polarized airway epithelial cells and primary human fibroblasts. rAAV infection of fully differentiated bronchial cells was performed as described in Duan et al. (1998). For infections from the apical surface of the airway cells, 5 μl rAAV was mixed with 50 μl of culture media and applied directly onto the apical compartment of Millicell inserts (MOI=10,000 particles/cell). During apical infection, the basolateral side of the Millicell was continuously bathed in culture media. Gene transfer to the basal side was performed by inverting Millicell inserts and applying viral vector to the bottom of the supporting filter membrane in a 50 μl volume for 2 hours. Subsequently, Millicell inserts were returned to the upright position, in the continued presence of the original viral inoculum plus an additional 450 μl of media. For both apical and basolateral infections, rAAV containing media was removed after 24 hours and replaced with either fresh culture media (for the basal side) or exposed to air (for the apical side). To test the effect of different agents on the efficiency of AAV transduction in polarized airway cells, 1 μl of each solution was mixed with AAV prior to infection of airway epithelia. Agents were usually presented during the 24 hours AAV infection period unless indicated otherwise.

Series [3] deals with polarized human bronchial epithelia. The experiment in a line: S35-labeled rAAV binding/entry assay in polarized bronchial epithelia. In kind it is cell-based. The method, then: FIGS. 12A and 12B. Binding and uptake of S^35-labeled AV.GFP3ori in fully differentiated human bronchial epithelia. The ability of polarized bronchial epithelia to bind and internalize virus from the apical or the basolateral surfaces was quantified using S^35-labeled rAAV. The binding assay was performed after incubation with virus at 4° C. for 1 hour, followed by repeated washing in PBS. The combined bound and internalized virus was quantified following incubation with virus at 4° C. for 1 hour, and subsequent incubation at 37° C. for 2 hours and 24 hours. Non-specific background binding of radiolabeled virus was determined in parallel studies on collagen coated empty chambers not seeded with bronchial cells. Background counts (averaging 15.67+/−5.17 cpm/well) were subtracted from experimental sample counts prior to analysis. Data in the right side of each figure is presented as the net cpms of bound/internalized virus (raw counts minus background counts of empty transwells). The results represent the mean (+/−SEM) of 6 independent transwells for each condition. Experiments were performed in triplicate from two independent tissue samples. The significance of the differences between each pair of samples (with or without LLnL) was evaluated using the Student's t-test and p-values are provided in brackets above the data for each condition. To correlate uptake of radioactive virus with the functional expression the rAAV encoded transgene, GFP expression from the same set of samples was quantified at 24 hour post-infection by indirect fluorescent microscopy. […]
Viral binding/entry assays and in situ localization of viral particles. […] Combined binding/entry of rAAV into differentiated airway epithelia was measured under the same conditions, except that the cultures were incubated at 37° C. for an additional 2–24 hours before they were harvested. […] After washing three times in PBS, cells were lysed in situ by the addition of 5 ml of liquid scintillation cocktail at room temperature for 5 minutes, and the radioactivity was quantitated in a scintillation counter.

Peptide text beside a SMILES is read from it. * marks the point of attachment. Cbz = O=C(OCc1ccccc1)*

`CC(C)C[C@@H](C=O)NC(=O)[C@H](CC(C)C)NC(=O)[C@H](CC(C)C)NC(=O)OCc1ccccc1` [Z-LLL, N-carbobenzoxyl-L-leucinyl-L-leucinyl-L-leucinal] (Cbz-Leu-Leu-Leu-aldehyde): in series [1], the “toxicity (histology of lung and liver, death of animals)” value was “No toxicity”. For the same molecule, in series [2], the “rAAV transduction (GFP expression) compared to untreated rAAV infected cells” value is “significantly increased rAAV transduction”.
Regarding “N-acetyl-L-leucinyl-L-leucinal-L-norleucinal [LLnL]”, in series [3] (2 hour infection period at 37° C.), the “uptake of S35 labeled rAAV” value is on record as “not altered”. For the same molecule, the “amount of intracellular radioactivity” value in series [3] (24 hours post-infection, either surface infected) was “very significant decrease”. Further, the “4° C. rAAV binding” value in series [3] (S35 labeled rAAV, with or without LLnL) is “no significant effect”. Also, in series [1], the “toxicity (histology of lung and liver, death of animals)” value was “No toxicity”. In series [2], the “rAAV transduction (GFP expression) compared to untreated rAAV infected cells” value was “significantly increased rAAV transduction”.

For the origin of these results see patent US7122335B1, “Compounds and methods to enhance rAAV transduction” (priority 1999, dated 2006).
